B1: human PDGF-BB: growth factor, manufactured by PEPROTECH (protein, UniProt P01127 82-190, looked up)
Platelet-derived growth …: SLGSLTIAEPAMIAECKTRTEVFEISRRLIDRTNANFLVWPPCVEVQRCSGCCNNRNVQCRPTQVQLRPVQVRKIEIVRKKPIFKKATVTLEDHLACKCETVAAARPVT
modifications: homodimer
notes: growth factor, manufactured by PEPROTECH
B2: human HB-EGF: growth factor, manufactured by PEPROTECH (protein, UniProt Q99075 63-148, looked up)
Heparin-binding EGF-like …: DLQEADLDLLRVTLSSKPQALATPNKEEHGKRKKKGKGLGKKRDPCLRKYKDFCIHGECKYVKELRAPSCICHPGYHGERCHGLSL

Test system: Human pancreatic cancer cell line Panc02,03
Test: Proliferation action on Panc02,03 cell stimulated by each growth factor (ATP, CellTiter-Glo)
Type: cell-based
Settings: for efficacy in Panc02,03 cell proliferation test using the medium composition by the production method of the present invention (in words): compared to a monolayer culture method and negative control group
[1] = Panc02,03, 10 ng/mL, medium composition of Example 13, on day 6 (head)
[2] = Panc02,03, 10 ng/mL, monolayer culture group, culture conditions on day 6 (head)
[3] = Panc02,03, 10 ng/mL, negative control group (medium free of deacylated gellan gum, low adhesion plate), on day 6 (head)
[4] = Panc02,03, 100 ng/mL, medium composition of Example 13, on day 6 (head)
[5] = Panc02,03, 100 ng/mL, monolayer culture group, culture conditions on day 6 (head)
[6] = Panc02,03, 100 ng/mL, negative control group (medium free of deacylated gellan gum, low adhesion plate), on day 6 (head)
[7] = Panc02,03, 30 ng/mL, medium composition of Example 13, on day 6 (head)
[8] = Panc02,03, 30 ng/mL, monolayer culture group, culture conditions on day 6 (head)
[9] = Panc02,03, 30 ng/mL, negative control group (medium free of deacylated gellan gum, low adhesion plate), on day 6 (head)

Molecule | % control of RLU value (ATP measurement, luminescence intensity) [1] | % control of RLU value (ATP measurement, luminescence intensity) [2] | % control of RLU value (ATP measurement, luminescence intensity) [3] | % control of RLU value (ATP measurement, luminescence intensity) [4] | % control of RLU value (ATP measurement, luminescence intensity) [5] | % control of RLU value (ATP measurement, luminescence intensity) [6] | % control of RLU value (ATP measurement, luminescence intensity) (Panc02,03, 3 ng/mL, medium composition of Example 13, on day 6 (head)) | % control of RLU value (ATP measurement, luminescence intensity) (Panc02,03, 3 ng/mL, monolayer culture group, culture conditions on day 6 (head)) | % control of RLU value (ATP measurement, luminescence intensity) (Panc02,03, 3 ng/mL, negative control group (medium free of deacylated gellan gum, low adhesion plate), on day 6 (head)) | % control of RLU value (ATP measurement, luminescence intensity) [7] | % control of RLU value (ATP measurement, luminescence intensity) [8] | % control of RLU value (ATP measurement, luminescence intensity) [9] | efficacy in Panc02,03 cell proliferation test using the medium composition by the production method of the present invention (in words)
human FGF-2: growth factor, manufactured by PEPROTECH | 107 % Control | 108 % Control | 118 % Control | 100 % Control | 102 % Control | 99 % Control |  |  |  |  |  |  | 
human EGF: growth factor, manufactured by PEPROTECH |  |  |  |  |  |  | 108 % Control | 105 % Control | 117 % Control | 187 % Control | 97 % Control | 136 % Control | strongly shown
B1 | 101 % Control | 98 % Control | 128 % Control |  |  |  |  |  |  |  |  |  | 
B2 |  |  |  | 202 % Control | 98 % Control | 134 % Control |  |  |  | 118 % Control | 99 % Control | 132 % Control | strongly shown

Source: patent publication US11345762B2, “Method for preparing liquid medium composition, and preparation device and kit therefor” (NISSAN CHEMICAL INDUSTRIES, LTD., priority 2015, dated 2022)
